EC50 data for 20 compounds are collected here from patent US20230295096A1, “PYRAZOLE CARBOXAMIDE COMPOUNDS FOR TREATMENT OF HBV” (ASSEMBLY BIOSCIENCES, INC., priority 2020, published 2023).

The structures appear in SMILES notation. pEC50: −log10 of the molar value.

In general, pEC50 refers to −log10 of the EC50, conventionally taken in molar units.

The assay concerns HBV. As to the kind of experiment: Viral load production from HepAD38 cells, qPCR of the HBV core sequence in supernatant. It counts as cell-based. To be noted: Hepatitis B virus, HePAD38, 120 h, HepAD38 cells, 5 days, HBV DNA in supernatant by qPCR; Table 1 ranges; read-out: Activity (viral load lowering EC50). In a few lines:
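EC50 and CC50 come from four-parameter logistic fits of supernatant HBV core DNA (TaqMan qPCR, DNA standards, compared with DMSO wells) and of CellTiter-Glo luminescence.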
(In general: In qPCR the cycle at which signal appears reflects the starting amount.)
Turning to `Cn1nc(C2CC3CC(O)(C(F)(F)F)CC3C2)c(C(=O)Nc2ccc(F)c(Cl)c2)c1N` (centres unmarked) [Example 31, 5-Amino-N-(3-chloro-4-fluorophenyl)-3-(5-hydroxy-5-(trifluoromethyl)octahydropentalen-2-yl)-1-methyl-1H-pyrazole-4-carboxamide], the pEC50 is 7.30 to 8.00.
Regarding `Cn1nc(C2CC3CC(O)(C(F)(F)C(F)(F)F)CC3C2)c(C(=O)Nc2ccc(F)c(Cl)c2)c1N` (centres unmarked) [Example 32, 5-Amino-N-(3-chloro-4-fluorophenyl)-3-(5-hydroxy-5-(perfluoroethyl)octahydropentalen-2-yl)-1-methyl-1H-pyrazole-4-carboxamide], the pEC50 is 7.30 to 8.00.
In the case of `Cn1nc(C2CC3CC(O)(C(F)(F)S(=O)(=O)c4ccccc4)CC3C2)c(C(=O)Nc2ccc(F)c(Cl)c2)c1N` (centres unmarked) [Example 33, 5-Amino-N-(3-chloro-4-fluorophenyl)-3-(5-(difluoro(phenylsulfonyl)methyl)-5-hydroxyoctahydropentalen-2-yl)-1-methyl-1H-pyrazole-4-carboxamide], the pEC50 was 7.30 to 8.00.
Regarding `Cn1nc(C2CC3CC(O)(C(F)(F)S(=O)(=O)c4ccc(Cl)cc4)CC3C2)c(C(=O)Nc2ccc(F)c(Cl)c2)c1N` (centres unmarked) [Example 34, 5-Amino-N-(3-chloro-4-fluorophenyl)-3-(5-(((4-chlorophenyl)sulfonyl)difluoromethyl)-5-hydroxyoctahydropentalen-2-yl)-1-methyl-1H-pyrazole-4-carboxamide], the pEC50 is 7.30 to 8.00.
Take `Cc1ccc(S(=O)(=O)C(F)(F)C2(O)CC3CC(c4nn(C)c(N)c4C(=O)Nc4ccc(F)c(Cl)c4)CC3C2)cc1` (centres unmarked) [Example 35, 5-Amino-N-(3-chloro-4-fluorophenyl)-3-(5-(difluoro(tosyl)methyl)-5-hydroxyoctahydropentalen-2-yl)-1-methyl-1H-pyrazole-4-carboxamide]: the pEC50 was 7.30 to 8.00.
For the compound `Cc1ccc([S+]([O-])C(F)(F)C2(O)CC3CC(c4nn(C)c(N)c4C(=O)Nc4ccc(F)c(Cl)c4)CC3C2)cc1` (centres unmarked) [Example 36, 5-Amino-N-(3-chloro-4-fluorophenyl)-3-(5-(difluoro(p-tolylsulfinyl)methyl)-5-hydroxyoctahydropentalen-2-yl)-1-methyl-1H-pyrazole-4-carboxamide], the pEC50 is 7.30 to 8.00.
Next, `Cn1nc(C2CC3CC(O)(CS(=O)(=O)c4cccc(F)c4)CC3C2)c(C(=O)Nc2ccc(F)c(Cl)c2)c1N` (centres unmarked) [Example 37, 5-Amino-N-(3-chloro-4-fluorophenyl)-3-(5-(((3-fluorophenyl)sulfonyl)methyl)-5-hydroxyoctahydropentalen-2-yl)-1-methyl-1H-pyrazole-4-carboxamide]: > 8.00.
Consider `Cn1cnc(C(=O)NCC2CC3CC(c4nn(C)c(N)c4C(=O)Nc4ccc(F)c(Cl)c4)CC3C2)c1` (centres unmarked) [Example 38, 5-Amino-N-(3-chloro-4-fluorophenyl)-1-methyl-3-(5-((1-methyl-1H-imidazole-4-carboxamido)methyl)octahydropentalen-2-yl)-1H-pyrazole-4-carboxamide], for which the negative-log EC50 (pEC50) is > 8.00.
Regarding `CC(C)C(=O)NCC1CC2CC(c3nn(C)c(N)c3C(=O)Nc3ccc(F)c(Cl)c3)CC2C1` (centres unmarked) [Example 45, 5-Amino-N-(3-chloro-4-fluorophenyl)-3-(5-(isobutyramidomethyl)octahydropentalen-2-yl)-1-methyl-1H-pyrazole-4-carboxamide], the negative logarithm of the EC50 (pEC50) was > 8.00.
As to `Cn1nc(C2CC3CC(CNC(=O)C4CCC4)CC3C2)c(C(=O)Nc2ccc(F)c(Cl)c2)c1N` (centres unmarked) [Example 46, 5-Amino-N-(3-chloro-4-fluorophenyl)-3-(5-(cyclobutanecarboxamidomethyl)octahydropentalen-2-yl)-1-methyl-1H-pyrazole-4-carboxamide], the pEC50 was > 8.00.
The value for `Cn1nc(C2CC3CC(CNC(=O)C4CCCC4)CC3C2)c(C(=O)Nc2ccc(F)c(Cl)c2)c1N` (centres unmarked) [Example 47, 5-Amino-N-(3-chloro-4-fluorophenyl)-3-(5-(cyclopentanecarboxamidomethyl)octahydropentalen-2-yl)-1-methyl-1H-pyrazole-4-carboxamide] was > 8.00.
For `COC(=O)NCC1CC2CC(c3nn(C)c(N)c3C(=O)Nc3ccc(F)c(Cl)c3)CC2C1` (centres unmarked) [Example 48, Methyl ((5-(5-amino-4-((3-chloro-4-fluorophenyl)carbamoyl)-1-methyl-1H-pyrazol-3-yl)octahydropentalen-2-yl)methyl)carbamate], the pEC50 was > 8.00.
Next, `CNC(=O)NCC1CC2CC(c3nn(C)c(N)c3C(=O)Nc3ccc(F)c(Cl)c3)CC2C1` (centres unmarked) [Example 49, 5-Amino-N-(3-chloro-4-fluorophenyl)-1-methyl-3-(5-((3-methylureido)methyl)octahydropentalen-2-yl)-1H-pyrazole-4-carboxamide]: > 8.00; `Cn1nc(C2CC3CC(CNC(=O)C4CCOCC4)CC3C2)c(C(=O)Nc2ccc(F)c(Cl)c2)c1N` (centres unmarked) [Example 50, 5-Amino-N-(3-chloro-4-fluorophenyl)-1-methyl-3-(5-((tetrahydro-2H-pyran-4-carboxamido)methyl)octahydropentalen-2-yl)-1H-pyrazole-4-carboxamide]: > 8.00; `CC1CCC(C(=O)NCC2CC3CC(c4nn(C)c(N)c4C(=O)Nc4ccc(F)c(Cl)c4)CC3C2)CC1` (centres unmarked) [Example 51, 5-Amino-N-(3-chloro-4-fluorophenyl)-1-methyl-3-(5-((4-methylcyclohexane-1-carboxamido)methyl)octahydropentalen-2-yl)-1H-pyrazole-4-carboxamide]: 7.30 to 8.00.
Turning to `C#CCCC(=O)NCC1CC2CC(c3nn(C)c(N)c3C(=O)Nc3ccc(F)c(Cl)c3)CC2C1` (centres unmarked) [Example 52, 5-Amino-N-(3-chloro-4-fluorophenyl)-1-methyl-3-(5-(pent-4-ynamidomethyl)octahydropentalen-2-yl)-1H-pyrazole-4-carboxamide], the pEC50 was > 8.00.
The value for `Cn1nc(C2CC3CC(CNC(=O)C4CCC(F)(F)CC4)CC3C2)c(C(=O)Nc2ccc(F)c(Cl)c2)c1N` (centres unmarked) [Example 53, 5-Amino-N-(3-chloro-4-fluorophenyl)-3-(5-((4,4-difluorocyclohexane-1-carboxamido)methyl)octahydropentalen-2-yl)-1-methyl-1H-pyrazole-4-carboxamide] was > 8.00; that for `CC(=O)NCC1CC2CC(c3nn(C)c(N)c3C(=O)Nc3ccc(F)c(Cl)c3)CC2C1` (centres unmarked) [Example 54, 3-(5-(Acetamidomethyl)octahydropentalen-2-yl)-5-amino-N-(3-chloro-4-fluorophenyl)-1-methyl-1H-pyrazole-4-carboxamide] was > 8.00.
Regarding `Cn1nc(C2CC3CC(CNC(=O)CC(F)(F)F)CC3C2)c(C(=O)Nc2ccc(F)c(Cl)c2)c1N` (centres unmarked) [Example 55, 5-Amino-N-(3-chloro-4-fluorophenyl)-1-methyl-3-(5-((3,3,3-trifluoropropanamido)methyl)octahydropentalen-2-yl)-1H-pyrazole-4-carboxamide], the pEC50 was > 8.00.
Next, `Cn1nc(C2CC3CC(CNC(=O)CCC(C)(C)C)CC3C2)c(C(=O)Nc2ccc(F)c(Cl)c2)c1N` (centres unmarked) [Example 56, 5-Amino-N-(3-chloro-4-fluorophenyl)-3-(5-((4,4-dimethylpentanamido)methyl)octahydropentalen-2-yl)-1-methyl-1H-pyrazole-4-carboxamide]: > 8.00.
